Results as given in patent publication US12509447B2, “Small molecule compound” (Technoderma Medicines Pte Ltd, priority 2019, dated 2025).

Assays:
Assay type in all cases: biochemical
Tyk2 = Tyk2 (Homo sapiens, UniProt P29597); experiment: Inhibition of JAK kinase activity, EZ Reader microfluidic phosphorylation of peptide substrate: Tyk2; conditions: Tyk2 kinase 1 nM; highest final concentration 10 μM, 1:3 serial dilution, 8 points, duplicates
In short: (§1)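 Microfluidic mobility-shift assay reading fluorescent peptide substrate and product; kinases at 20 nM (JAK1) or 1 nM (JAK2, JAK3, Tyk2) in pH 7.4 HEPES with 10 mM MgCl2, run at room temperature to 20-30% conversion, then stopped with EDTA. Compounds tested from 10 μM top, 1:3 over 8 points in duplicate; IC50 fitted from % conversion.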

JAK1 = JAK1 (Homo sapiens, UniProt P23458); experiment: Inhibition of JAK kinase activity, EZ Reader microfluidic phosphorylation of peptide substrate: JAK1; conditions: JAK1 kinase 20 nM; highest final concentration 10 μM, 1:3 serial dilution, 8 points, duplicates
In short: as §1

JAK2 = JAK2 (Homo sapiens, UniProt O60674); experiment: Inhibition of JAK kinase activity, EZ Reader microfluidic phosphorylation of peptide substrate: JAK2; conditions: JAK2 kinase 1 nM; highest final concentration 10 μM, 1:3 serial dilution, 8 points, duplicates
From the text: (§2) EZ Reader available from PerkinElmer can be used for detecting the phosphorylation of polypeptide substrates catalyzed by kinases. This device is based on microfluidic separation technology, and can directly detect fluorescence labeled substrates and products. The separation step is achieved in a microfluidic chip by controlling the pressure and electric field intensity. In a kinase experiment, the product conversion rate is generally controlled at 20-30%. This biological assay method is used for identifying the inhibitory effect of the compounds on JAK.
(§3) The compound powder was dissolved in DMSO, sealed and stored in a refrigerator at −20° C. The in-house compound Ref1 was used as a positive control for testing of JAK1, JAK2 and Tyk2, and Ref2 was used as a positive control for testing of JAK3.
(§4) • S2.1. 1M HEPES buffer: 0.5M HEPES free acid and 0.5M HEPES sodium salt are weighed, added into ultrapure water for dissolution, brought to a desired volume, filtered and stored in a refrigerator at 4° C. • S2.2. 40 mM ATP solution: dissolved in a 50 mM HEPES buffer solution, prepared into 40 mM, aliquoted, and cryopreserved in a refrigerator at −20° C. • S2.3. 0.5% Tween 20: 100% Tween 20 was diluted with ultrapure water, and stored in a refrigerator at 4° C. • S2.4. 35% bovine serum albumin: a 35% bovine serum albumin solution is prepared in ultrapure water, aliquoted, and stored in a refrigerator at −20° C. • S2.5. 1M dithiothreitol solution: dithiothreitol is formulated into a 1M solution with ultrapure water, aliquoted, and stored in a refrigerator at −20° C. • S2.6. 0.5 mM Jaktide Peptide substrate solution: it is dissolved in 50 mM HEPES to 0.5 mM, aliquoted, and stored in a refrigerator at −20° C. • S2.7. 0.5 mM IRStide Peptide substrate solution: it is dissolved in 50 mM HEPES to 0.5 mM, aliquoted, and stored in a refrigerator at −20° C. • S2.8. Assay Buffer: 20 mM HEPES buffer, pH 7.4, 10 mM magnesium chloride, 0.01% bovine serum albumin BSA, 0.0005% Tween-20, and a 1 mM dithiothreitol solution. • S2.9. Stop Buffer: 180 mM HEPES buffer, 20 mM ethylenediamine tetraacetic acid (EDTA), and 0.2% Coating Reagent 3. • S2.10. Separation Buffer: 100 mM HEPES buffer, 10 mM EDTA, 0.0005% Tween 20, 0.1% Coating Reagent 3, and 1% dimethyl sulfoxide. 3. Experimental Procedures • S3.1. Preparation of compound plate
(§5) The compound is dissolved in dimethyl sulfoxide to 10 mM, a certain volume is taken and diluted to 0.6 mM, 10 μl of the diluted 0.6 mM solution is taken and added into a 384 microplate or 1:3 serial dilution, with a total of 8 concentration points. • S3.2. Compound layout
(§6) • positive control (HPE1): Ref1, final concentration: 10 μM • positive control (HPE1): Ref2, final concentration: 10 μM • negative control (ZPE): DMSO, with a final concentration of 1.6% • Compound: the highest final concentration at 10 μM, 1:3 serial dilution, with 8 concentration points and in duplicates. 4. Experimental operation steps • S4.1. the experimental plate was added with 250 nl of the compound per well with ECHO, and centrifuged at 1,000 rpm for 1 minute; • S4.2. the precipitate was added with 5 μl of the experimental buffer, and shaken for several seconds to fully dissolve the compound; • S4.3. the solution was added with 5 μl of a 3× substrate solution, as well as 5 μl of a 3× kinase solution, and centrifuged at 800 rpm for 1 minute; • S4.4. The final concentrations of JAK1, JAK2, JAK3 and Tyk2 kinases in the reaction system are 20, 1, 1 and 1 nM, respectively. • S4.5. the reaction system is incubated at room temperature, wherein the incubation time of each kinase is different, and there are differences in incubation time of different batches of kinases. • S4.6. When the reaction reaches 20%-30%, the reaction system is added with 15 μl of the stop buffer to terminate the reaction, and centrifuged at 1,000 rpm for 2 minutes. • S4.7. The precipitate was placed onto a EZ Reader for plate reading. • S4.8. […]

JAK3 = target: T1, JAK3 (Homo sapiens, UniProt P52333); experiment: Inhibition of JAK kinase activity, EZ Reader microfluidic phosphorylation of peptide substrate: JAK3; conditions: JAK3 kinase 1 nM; highest final concentration 10 μM, 1:3 serial dilution, 8 points, duplicates
T1 sequence (P52333 1-1124): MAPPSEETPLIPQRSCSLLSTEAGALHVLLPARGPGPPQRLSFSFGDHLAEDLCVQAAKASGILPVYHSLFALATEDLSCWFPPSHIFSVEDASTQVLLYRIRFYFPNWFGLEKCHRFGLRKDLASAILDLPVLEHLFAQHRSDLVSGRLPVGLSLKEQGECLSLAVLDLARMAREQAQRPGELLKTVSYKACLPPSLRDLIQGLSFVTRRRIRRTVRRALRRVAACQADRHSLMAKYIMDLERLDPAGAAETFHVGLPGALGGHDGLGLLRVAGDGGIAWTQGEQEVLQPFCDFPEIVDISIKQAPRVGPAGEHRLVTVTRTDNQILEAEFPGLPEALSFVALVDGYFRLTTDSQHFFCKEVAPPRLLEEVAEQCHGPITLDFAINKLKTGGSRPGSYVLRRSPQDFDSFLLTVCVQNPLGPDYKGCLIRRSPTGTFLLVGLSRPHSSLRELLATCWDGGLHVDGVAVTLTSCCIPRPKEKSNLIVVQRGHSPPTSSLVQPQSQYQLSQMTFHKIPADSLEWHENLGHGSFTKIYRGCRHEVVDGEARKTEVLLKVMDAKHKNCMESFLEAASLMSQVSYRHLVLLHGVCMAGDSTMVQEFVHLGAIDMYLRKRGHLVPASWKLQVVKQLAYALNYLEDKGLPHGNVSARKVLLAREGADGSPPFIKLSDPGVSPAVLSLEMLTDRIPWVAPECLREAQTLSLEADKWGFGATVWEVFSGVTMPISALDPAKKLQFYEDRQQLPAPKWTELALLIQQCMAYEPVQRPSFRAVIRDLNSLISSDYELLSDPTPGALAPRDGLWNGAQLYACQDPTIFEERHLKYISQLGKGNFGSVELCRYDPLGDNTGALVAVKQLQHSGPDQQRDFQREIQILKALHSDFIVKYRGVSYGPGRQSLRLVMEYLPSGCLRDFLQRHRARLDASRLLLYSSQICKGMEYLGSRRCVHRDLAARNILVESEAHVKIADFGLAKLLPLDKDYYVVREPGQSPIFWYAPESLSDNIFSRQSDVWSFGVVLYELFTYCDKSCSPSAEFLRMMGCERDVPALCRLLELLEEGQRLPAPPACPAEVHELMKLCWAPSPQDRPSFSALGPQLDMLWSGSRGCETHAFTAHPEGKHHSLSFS
From the text: as §2, §3, §4, §5, §6

Sequence of Tyk2 (P29597 whole entry): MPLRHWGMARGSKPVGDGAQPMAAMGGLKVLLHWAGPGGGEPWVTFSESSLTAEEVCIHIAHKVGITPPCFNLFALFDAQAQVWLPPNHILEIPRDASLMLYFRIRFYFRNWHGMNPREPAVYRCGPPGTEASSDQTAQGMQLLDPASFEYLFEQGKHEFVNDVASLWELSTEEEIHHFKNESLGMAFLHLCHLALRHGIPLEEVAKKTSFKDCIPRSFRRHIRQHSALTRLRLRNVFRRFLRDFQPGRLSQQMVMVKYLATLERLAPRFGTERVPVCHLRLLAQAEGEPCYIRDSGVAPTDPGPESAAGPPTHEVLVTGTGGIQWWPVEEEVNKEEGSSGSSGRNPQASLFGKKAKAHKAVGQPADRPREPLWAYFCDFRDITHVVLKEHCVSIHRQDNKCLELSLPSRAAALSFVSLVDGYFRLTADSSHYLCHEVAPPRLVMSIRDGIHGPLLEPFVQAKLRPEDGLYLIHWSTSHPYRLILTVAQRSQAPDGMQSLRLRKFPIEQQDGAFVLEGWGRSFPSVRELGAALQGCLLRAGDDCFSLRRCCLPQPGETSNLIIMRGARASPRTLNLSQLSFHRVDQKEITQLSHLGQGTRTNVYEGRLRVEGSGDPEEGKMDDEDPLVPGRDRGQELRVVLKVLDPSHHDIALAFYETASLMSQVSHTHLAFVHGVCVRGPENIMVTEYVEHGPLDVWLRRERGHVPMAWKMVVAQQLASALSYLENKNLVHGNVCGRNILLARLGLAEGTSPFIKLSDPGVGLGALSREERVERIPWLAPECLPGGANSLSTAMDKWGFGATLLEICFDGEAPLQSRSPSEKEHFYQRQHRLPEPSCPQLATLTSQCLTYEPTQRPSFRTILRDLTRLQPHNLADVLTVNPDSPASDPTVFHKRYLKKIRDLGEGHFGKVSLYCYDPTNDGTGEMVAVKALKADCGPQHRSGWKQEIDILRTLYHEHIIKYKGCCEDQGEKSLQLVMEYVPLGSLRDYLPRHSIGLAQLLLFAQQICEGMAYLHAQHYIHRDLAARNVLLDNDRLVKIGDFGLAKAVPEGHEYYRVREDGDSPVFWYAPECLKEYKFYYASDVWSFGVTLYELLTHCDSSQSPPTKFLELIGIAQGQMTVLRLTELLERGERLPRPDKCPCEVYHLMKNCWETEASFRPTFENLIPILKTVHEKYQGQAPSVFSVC
Sequence of JAK1 (P23458 whole entry): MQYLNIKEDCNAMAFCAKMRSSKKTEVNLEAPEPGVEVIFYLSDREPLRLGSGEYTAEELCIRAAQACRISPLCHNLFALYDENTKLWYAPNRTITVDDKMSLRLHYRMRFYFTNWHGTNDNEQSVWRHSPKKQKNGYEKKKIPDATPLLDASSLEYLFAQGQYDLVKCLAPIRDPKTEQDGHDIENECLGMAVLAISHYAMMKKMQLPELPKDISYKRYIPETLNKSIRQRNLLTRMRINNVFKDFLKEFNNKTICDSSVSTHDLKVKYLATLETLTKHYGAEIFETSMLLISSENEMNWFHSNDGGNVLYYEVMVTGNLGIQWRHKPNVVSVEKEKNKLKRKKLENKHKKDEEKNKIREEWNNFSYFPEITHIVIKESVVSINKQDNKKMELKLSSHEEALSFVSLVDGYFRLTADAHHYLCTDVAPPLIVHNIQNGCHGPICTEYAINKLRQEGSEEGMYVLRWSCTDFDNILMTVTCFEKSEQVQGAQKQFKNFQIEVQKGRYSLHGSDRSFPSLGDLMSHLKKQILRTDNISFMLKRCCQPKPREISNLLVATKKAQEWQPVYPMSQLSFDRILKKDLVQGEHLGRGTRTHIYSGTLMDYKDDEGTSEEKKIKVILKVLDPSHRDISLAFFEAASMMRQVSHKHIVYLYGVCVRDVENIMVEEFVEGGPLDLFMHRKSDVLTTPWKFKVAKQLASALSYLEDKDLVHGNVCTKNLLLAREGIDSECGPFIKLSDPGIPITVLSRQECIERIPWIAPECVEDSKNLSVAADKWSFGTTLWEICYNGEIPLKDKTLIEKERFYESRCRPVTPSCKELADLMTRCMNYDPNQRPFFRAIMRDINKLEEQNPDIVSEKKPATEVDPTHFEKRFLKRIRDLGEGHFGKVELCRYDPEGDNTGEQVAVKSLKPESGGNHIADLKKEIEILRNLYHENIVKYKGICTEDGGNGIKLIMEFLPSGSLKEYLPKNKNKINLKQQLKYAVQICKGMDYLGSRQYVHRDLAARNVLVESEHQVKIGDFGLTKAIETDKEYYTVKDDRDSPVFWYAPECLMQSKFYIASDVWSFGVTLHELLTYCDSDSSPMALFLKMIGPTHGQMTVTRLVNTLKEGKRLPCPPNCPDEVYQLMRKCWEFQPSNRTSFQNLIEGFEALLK
Sequence of JAK2 (O60674 whole entry): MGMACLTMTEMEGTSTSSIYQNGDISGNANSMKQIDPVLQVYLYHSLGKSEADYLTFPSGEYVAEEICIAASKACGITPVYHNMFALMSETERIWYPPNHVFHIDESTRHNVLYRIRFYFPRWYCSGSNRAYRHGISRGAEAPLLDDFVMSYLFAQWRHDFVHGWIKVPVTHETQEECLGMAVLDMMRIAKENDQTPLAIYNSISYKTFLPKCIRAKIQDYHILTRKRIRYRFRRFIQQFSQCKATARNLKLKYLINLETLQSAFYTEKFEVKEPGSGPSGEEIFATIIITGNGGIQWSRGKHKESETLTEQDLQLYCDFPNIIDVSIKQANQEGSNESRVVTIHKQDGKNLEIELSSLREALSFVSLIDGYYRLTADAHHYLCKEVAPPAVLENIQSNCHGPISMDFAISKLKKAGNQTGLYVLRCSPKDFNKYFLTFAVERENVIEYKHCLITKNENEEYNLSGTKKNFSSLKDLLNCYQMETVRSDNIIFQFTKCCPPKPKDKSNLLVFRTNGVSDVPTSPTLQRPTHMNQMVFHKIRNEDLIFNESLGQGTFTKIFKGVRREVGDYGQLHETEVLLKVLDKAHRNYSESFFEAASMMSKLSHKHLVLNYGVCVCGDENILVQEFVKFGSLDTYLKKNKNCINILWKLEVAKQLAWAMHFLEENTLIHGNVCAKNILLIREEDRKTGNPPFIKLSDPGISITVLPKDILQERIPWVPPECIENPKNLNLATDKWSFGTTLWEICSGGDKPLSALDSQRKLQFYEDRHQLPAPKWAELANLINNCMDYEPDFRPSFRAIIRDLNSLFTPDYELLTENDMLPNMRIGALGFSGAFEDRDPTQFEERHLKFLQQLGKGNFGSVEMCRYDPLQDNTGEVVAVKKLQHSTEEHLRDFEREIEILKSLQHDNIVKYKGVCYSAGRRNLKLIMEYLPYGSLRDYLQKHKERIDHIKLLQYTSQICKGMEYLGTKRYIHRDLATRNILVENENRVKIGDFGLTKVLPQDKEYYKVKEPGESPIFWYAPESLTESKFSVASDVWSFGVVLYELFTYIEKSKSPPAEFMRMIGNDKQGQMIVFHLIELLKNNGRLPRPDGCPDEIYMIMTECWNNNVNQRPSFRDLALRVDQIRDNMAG

Structure (SMILES)	IC50 (Tyk2) [µM]	IC50 (JAK1) [µM]	IC50 (JAK2) [µM]	IC50 (JAK3) [µM]
Cn1cc(Nc2nccc(-c3cnn(C4CCN(C(=O)C5CC5)CC4)c3)n2)cn1 [TDM-180673, cyclopropyl(4-(4-(2-((1-methyl-1H-pyrazol-4-yl)amino)pyrimidin-4-yl)-1H-pyrazol-1-yl)piperidin-1-yl)ketone]	≥ 10	≥ 10	≥ 10	≥ 10
CCS(=O)(=O)N1CCC(n2cc(-c3ccnc(Nc4cnn(C)c4)n3)cn2)CC1 [TDM-180674, 4-(1-(1-(ethylsulfonyl)piperidin-4-yl)-1H-pyrazol-4-yl)-N-(1-methyl-1H-pyrazol-4-yl)pyrimidin-2-amine]	1 to 10	≥ 10	1 to 10	≥ 10
CCCS(=O)(=O)N1CCC(n2cc(-c3ccnc(Nc4cnn(C)c4)n3)cn2)CC1 [TDM-180675, N-(1-methyl-1H-pyrazol-4-yl)-4-(1-(1-(propylsulfonyl)piperidin-4-yl)-1H-pyrazol-4-yl)pyrimidin-2-amine]	≥ 10	≥ 10	1 to 10	≥ 10
CCC(=O)N1CCC(n2cc(-c3ccnc(Nc4cnn(C)c4)n3)cn2)CC1 [TDM-180676, 1-(4-(4-(2-((1-methyl-1H-pyrazol-4-yl)amino)pyrimidin-4-yl)-1H-pyrazol-1-yl)piperidin-1-yl)propan-1-one]	≥ 10	≥ 10	≥ 10	≥ 10
CCCC(=O)N1CCC(n2cc(-c3ccnc(Nc4cnn(C)c4)n3)cn2)CC1 [TDM-180677, 1-(4-(4-(2-((1-methyl-1H-pyrazol-4-yl)amino)pyrimidin-4-yl)-1H-pyrazol-1-yl)piperidin-1-yl)butan-1-one]	≥ 10	≥ 10	≥ 10	≥ 10
Cn1cc(Nc2nccc(-c3cnn(C4CCN(C(=O)CC(F)(F)F)CC4)c3)n2)cn1 [TDM-180678, 3,3,3-trifluoro-1-(4-(4-(2-((1-methyl-1H-pyrazol-4-yl)amino)pyrimidin-4-yl)-1H-pyrazol-1-yl)piperidin-1-yl)propan-1-one]	≥ 10	≥ 10	≥ 10	≥ 10
Cn1cc(Nc2nccc(-c3cnn(C4CCN(C(=O)C5CC5(F)F)CC4)c3)n2)cn1 (stereo not shown) [TDM-180679, (2,2-difluorocyclopropyl)(4-(4-(2-((1-methyl-1H-pyrazol-4-yl)amino)pyrimidin-4-yl)-1H-pyrazol-1-yl)piperidin-1-yl)ketone]	≥ 10	≥ 10	≥ 10	≥ 10

Continued, values first:

IC50 (Tyk2) [µM]	IC50 (JAK1) [µM]	IC50 (JAK2) [µM]	IC50 (JAK3) [µM]	Structure (SMILES)
≥ 10	≥ 10	≥ 10	≥ 10	Cn1cc(Nc2nccc(-c3cnn(C4CN(C(=O)CO)C4)c3)n2)cn1 [TDM-180672, 2-hydroxy-1-(3(4-(2-((1-methyl-1H-pyrazol-4-yl)amino)pyrimidin-4-yl)-1H-pyrazol-1-yl)azetidin-1-yl)ethanone]
≥ 10	≥ 10	≥ 10	≥ 10	Cn1cc(Nc2nccc(-c3cnn(C4CCN(C(=O)CC#N)CC4)c3)n2)cn1 [TDM-180680, 3-(4-(4-(2-((1-methyl-1H-pyrazol-4-yl)amino)pyrimidin-4-yl)-1H-pyrazol-1-yl)piperidin-1-yl)3-oxopropanenitrile]
≥ 10	≥ 10	≥ 10	≥ 10	Cn1cc(Nc2nccc(-c3cnn(C4CCN(C(=O)CO)CC4)c3)n2)cn1 [TDM-180681, 2-hydroxy-1-(4-(4-(2-((1-methyl-1H-pyrazol-4-yl)amino)pyrimidin-4-yl)-1H-pyrazol-1-yl)piperidin-1-yl)ethanone]
0.1 to 1	0.1 to 1	0.1 to 1	1 to 10	Cn1cc(Nc2nccc(-c3cnn(C4(CC#N)CN(C(=O)C5CC5(F)F)C4)c3)n2)cn1 (stereo not shown) [TDM-180726, 2-(1-(2,2-difluorocyclo-1-carbonyl)-3-(4-(2-((1-methyl-1H-pyrazol-4-yl)amino)pyrimidin-4-yl)-1H-pyrazol-1-yl)azetidin-3-yl)acetonitrile]
0.1 to 1	0.1 to 1	1 to 10	≥ 10	Cn1cc(Nc2nccc(-c3cnn(C4(CC#N)CN(C(=O)CC#N)C4)c3)n2)cn1 [TDM-180727, 3-(3-(cyanomethyl)-3-(4-(2-((1-methyl-1H-pyrazol-4-yl)amino)pyrimidin-4-yl)-1H-pyrazol-1-yl)azetidinpiperazin-1-yl)-3-oxypropionitrile]
0.1 to 1	0.1 to 1	< 0.1	1 to 10	CCS(=O)(=O)N1CC(CC#N)(n2cc(-c3ccnc(Nc4cnn(C)c4)n3)cn2)C1 [TDM-180728, 2-(1-(ethylsulfonyl)-3-(4-(2-((1-methyl-1H-pyrazol-4-yl)amino)pyrimidin-4-yl)-1H-pyrazol-1-yl)azetidinpyridin-3-yl)acetonitrile]
